Measured values as given in ChEMBL document CHEMBL5370589, “Heterologous Production and Biosynthesis of Threonine-16:0dioic acids with a Hydroxamate Moiety” (J Nat Prod, 2023).
Activity calls are given as the source filed them. The rule behind the calls is not given here.

What was measured:
[1] = Metal chelating activity assessed as compound-[…] complex formation by chrome-azurol S assay
Staphylococcus aureus = assay: Antibiotic activity against Staphylococcus aureus Newman assessed as reduction in bacterial cell growth at 0.03 to 64 microg/ml; format: functional, organism-based; conditions: dose 0.03-64 µg/ml
Escherichia coli = assay: Antibiotic activity against wild-type Escherichia coli BW25113 assessed as reduction in bacterial cell growth at 0.03 to 64 microg/ml; format: functional, organism-based; conditions: dose 0.03-64 µg/ml
Staphylococcus carnosus = assay: Antibiotic activity against Staphylococcus carnosus DSM-20501 assessed as reduction in bacterial cell growth at 0.03 to 64 microg/ml; format: functional, organism-based; conditions: dose 0.03-64 µg/ml
Bacillus subtilis = assay: Antibiotic activity against Bacillus subtilis DSM-10 assessed as reduction in bacterial cell growth at 0.03 to 64 microg/ml; format: functional, organism-based; conditions: dose 0.03-64 µg/ml
Kocuria rhizophila = assay: Antibiotic activity against Kocuria rhizophila DSM-348 assessed as reduction in bacterial cell growth at 0.03 to 64 microg/ml; format: functional, organism-based; conditions: dose 0.03-64 µg/ml
Enterococcus mundtii = assay: Antibiotic activity against Enterococcus mundtii DSM-4840 assessed as reduction in bacterial cell growth at 0.03 to 64 microg/ml; format: functional, organism-based; conditions: dose 0.03-64 µg/ml
Pseudomonas putida = assay: Antibiotic activity against Pseudomonas putida assessed as reduction in bacterial cell growth at 0.03 to 64 microg/ml; format: functional, organism-based; conditions: dose 0.03-64 µg/ml
Micrococcus luteus = assay: Antibiotic activity against Micrococcus luteus DSM-20030 assessed as reduction in bacterial cell growth at 0.03 to 64 microg/ml; format: functional, organism-based; conditions: dose 0.03-64 µg/ml
Erwinia persicina = assay: Antibiotic activity against Erwinia persicina DSM-19328 assessed as reduction in bacterial cell growth at 0.03 to 64 microg/ml; format: functional, organism-based; conditions: dose 0.03-64 µg/ml
HepG2 = assay: Cytotoxicity against human HepG2 cells assessed as reduction in cell viability; format: toxicity, cell-based
[2] = Potency index, ratio of deferoxamine EC50 to compound EC50 for metal chelating activity assessed as compound-[…] complex formation by chrome-azurol S assay
[3] = Metal chelating activity assessed as compound-[…] complex formation at 10 to 100 uM by chrome-azurol S assay; conditions: dose 10-100 µM

| SMILES | EC50 [1] [µM] | Activity (Staphylococcus aureus) | Activity (Escherichia coli) | Activity (Staphylococcus carnosus) | Activity (Bacillus subtilis) | Activity (Kocuria rhizophila) | Activity (Enterococcus mundtii) | Activity (Pseudomonas putida) | Activity (Micrococcus luteus) | Activity (Erwinia persicina) | Activity (HepG2) | Ratio EC50 [2] | Activity [3] |
| --- | --- | --- | --- | --- | --- | --- | --- | --- | --- | --- | --- | --- | --- |
| CC(CCCCCCCCCCCCC(=O)N(O)[C@@H](C(=O)O)[C@@H](C)O)C(=O)O (stereo partly specified) | 75 |  |  |  |  |  |  |  |  |  |  |  |  |
| C[C@@H](O)[C@H](C(=O)O)N(O)C(=O)CCCCCCCCCCCCCCC(=O)O | 58 | inactive | inactive | inactive | inactive | inactive | inactive | inactive | inactive | inactive | Non-Toxic | 5 |  |
| CC(=O)N[C@@H](CSC(CCCCCCCCCCCCCC(=O)O)C(=O)N[C@@H](C(=O)O)[C@@H](C)O)C(=O)O (stereo partly specified) |  | inactive | inactive | inactive | inactive | inactive | inactive | inactive | inactive | inactive | Non-Toxic |  | inactive |
| CC(=O)N(O)CCCCCNC(=O)CCC(=O)N(O)CCCCCNC(=O)CCC(=O)N(O)CCCCCN [DEFEROXAMINE] | 11 |  |  |  |  |  |  |  |  |  |  |  |  |
| O=C(O)CN(CCN(CC(=O)O)CC(=O)O)CC(=O)O [EDETIC ACID] | 18 |  |  |  |  |  |  |  |  |  |  |  |  |
